Patent publication US6613718B2, “Aryl ether derivatives and processes for their preparation and herbicidal and desiccant compositions containing them” (Ishihara Sangyo Kaisha, Ltd., priority 2001, dated 2003)

How the values were obtained:
Format in all cases: in vivo
Settings in all cases: 14 days after application
[1] = test system: johnsongrass (Sorghum halepense, SORHA); assay: Post-emerge greenhouse herbicide activity screening, phytotoxicity rating
Summary of the method: (§1)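 Greenhouse screen. Sowing preceded application by one day (pre-emergence) or 8-21 days (post-emergence). Doses spanned 15 to 1000 g ai/ha in acetone. Score at day 14: 0 no injury, 100 total kill.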

[2] = test system: common ragweed (Ambrosia artemisiifolia L., AMBEL); assay: as above
Summary of the method: as §1

[3] = test system: redroot pigweed (Amaranthus retroflexus, AMARE); assay: as above
Summary of the method: as §1

[4] = test system: large crabgrass (Digitaria sanguinalis, DIGSA); assay: as above
Summary of the method: as §1

[5] = test system: ivyleaf morningglory (Ipomoea hederacea, IPOHE); assay: as above
Summary of the method: as §1

[6] = test system: sicklepod (Cassia obtusifolia, CASOB); assay: as above
Summary of the method: as §1

[7] = test system: barnyardgrass (Echinochloa crus-galli, ECHCG); assay: as above
Summary of the method: as §1

[8] = test system: lambsquarters (Chenopodium album, CHEAL); assay: as above
Summary of the method: as §1

[9] = test system: green foxtail (Setaria viridis, SETVI); assay: as above
Summary of the method: as §1

[10] = test system: velvetleaf (Abutilon theophrasti, ABUTH); assay: as above
Summary of the method: as §1

[11] = test system: soybean (Glycine max L., var. Pella 86, SOY); assay: Pre-emerge greenhouse screening, crop safety (phytotoxicity rating)
Summary of the method: as §1

[12] = test system: upland rice (Oryza sp., var.Tebonnet, RICE); assay: as above
Summary of the method: as §1

[13] = test system: field corn (Zea mays L., var. Dekalb 535, CORN); assay: as above
Summary of the method: as §1

[14] = test system: field corn (Zea mays L., var. Dekalb 535, CORN); assay: Post-emerge greenhouse screening, crop safety / corn selectivity (phytotoxicity rating)
Summary of the method: as §1

[15] = test system: soybean (Glycine max L., var. Pella 86, SOY); assay: Post-emerge greenhouse screening, crop safety (phytotoxicity rating)
Summary of the method: as §1

[16] = test system: upland rice (Oryza sp., var.Tebonnet, RICE); assay: as above
Summary of the method: as §1

[17] = test system: johnsongrass (Sorghum halepense, SORHA); assay: Pre-emerge greenhouse herbicide activity screening, phytotoxicity rating
Summary of the method: as §1

[18] = test system: common ragweed (Ambrosia artemisiifolia L., AMBEL); assay: as above
Summary of the method: as §1

[19] = test system: redroot pigweed (Amaranthus retroflexus, AMARE); assay: as above
Summary of the method: as §1

[20] = test system: large crabgrass (Digitaria sanguinalis, DIGSA); assay: as above
Summary of the method: as §1

[21] = test system: ivyleaf morningglory (Ipomoea hederacea, IPOHE); assay: as above
Summary of the method: as §1

[22] = test system: sicklepod (Cassia obtusifolia, CASOB); assay: as above
Summary of the method: as §1

[23] = test system: barnyardgrass (Echinochloa crus-galli, ECHCG); assay: as above
Summary of the method: as §1

[24] = test system: lambsquarters (Chenopodium album, CHEAL); assay: as above
Summary of the method: as §1

[25] = test system: green foxtail (Setaria viridis, SETVI); assay: as above
Summary of the method: as §1

[26] = test system: velvetleaf (Abutilon theophrasti, ABUTH); assay: as above
Summary of the method: as §1

COc1ccccc1Oc1cc(-n2c(=O)cc(C(F)(F)F)n(C)c2=S)c(F)cc1C#N [Compound 1-71]
SORHA phytotoxicity rating (0-100 scale) ([1]; 125 g ai/ha): 0 | SORHA phytotoxicity rating (0-100 scale) ([1]; 250 g ai/ha): 15 | AMBEL phytotoxicity rating (0-100 scale) ([2]; 125 g ai/ha): 80 | AMBEL phytotoxicity rating (0-100 scale) ([2]; 250 g ai/ha): 90 | AMARE phytotoxicity rating (0-100 scale) ([3]; 125 g ai/ha): 100 | AMARE phytotoxicity rating (0-100 scale) ([3]; 250 g ai/ha): 100 | DIGSA phytotoxicity rating (0-100 scale) ([4]; 125 g ai/ha): 50 | DIGSA phytotoxicity rating (0-100 scale) ([4]; 250 g ai/ha): 60 | IPOHE phytotoxicity rating (0-100 scale) ([5]; 125 g ai/ha): 100 | IPOHE phytotoxicity rating (0-100 scale) ([5]; 250 g ai/ha): 100 | CASOB phytotoxicity rating (0-100 scale) ([6]; 125 g ai/ha): 50 | CASOB phytotoxicity rating (0-100 scale) ([6]; 250 g ai/ha): 50 | ECHCG phytotoxicity rating (0-100 scale) ([7]; 125 g ai/ha): 35 | ECHCG phytotoxicity rating (0-100 scale) ([7]; 250 g ai/ha): 65 | CHEAL phytotoxicity rating (0-100 scale) ([8]; 125 g ai/ha): 100 | CHEAL phytotoxicity rating (0-100 scale) ([8]; 250 g ai/ha): 100 | SETVI phytotoxicity rating (0-100 scale) ([9]; 125 g ai/ha): 85 | SETVI phytotoxicity rating (0-100 scale) ([9]; 250 g ai/ha): 85 | ABUTH phytotoxicity rating (0-100 scale) ([10]; 125 g ai/ha): 100 | ABUTH phytotoxicity rating (0-100 scale) ([10]; 250 g ai/ha): 100 | SOY crop damage, phytotoxicity rating (0-100 scale) ([11]; 125 g ai/ha): 45 | SOY crop damage, phytotoxicity rating (0-100 scale) ([11]; 250 g ai/ha): 60 | RICE crop damage, phytotoxicity rating (0-100 scale) ([12]; 125 g ai/ha): 50 | RICE crop damage, phytotoxicity rating (0-100 scale) ([12]; 250 g ai/ha): 65 | CORN crop damage, phytotoxicity rating (0-100 scale) ([13]; 125 g ai/ha): 0 | CORN crop damage, phytotoxicity rating (0-100 scale) ([13]; 250 g ai/ha): 5 | CORN crop damage, phytotoxicity rating (0-100 scale) ([14]; 125 g ai/ha): 0 | CORN crop damage, phytotoxicity rating (0-100 scale) ([14]; 250 g ai/ha): 0 | SOY crop damage, phytotoxicity rating (0-100 scale) ([15]; 125 g ai/ha): 50 | SOY crop damage, phytotoxicity rating (0-100 scale) ([15]; 250 g ai/ha): 75 | RICE crop damage, phytotoxicity rating (0-100 scale) ([16]; 125 g ai/ha): 0 | RICE crop damage, phytotoxicity rating (0-100 scale) ([16]; 250 g ai/ha): 0 | SORHA phytotoxicity rating (0-100 scale) ([17]; 125 g ai/ha): 99 | SORHA phytotoxicity rating (0-100 scale) ([17]; 250 g ai/ha): 100 | AMBEL phytotoxicity rating (0-100 scale) ([18]; 125 g ai/ha): 100 | AMBEL phytotoxicity rating (0-100 scale) ([18]; 250 g ai/ha): 100 | AMARE phytotoxicity rating (0-100 scale) ([19]; 125 g ai/ha): 100 | AMARE phytotoxicity rating (0-100 scale) ([19]; 250 g ai/ha): 100 | DIGSA phytotoxicity rating (0-100 scale) ([20]; 125 g ai/ha): 100 | DIGSA phytotoxicity rating (0-100 scale) ([20]; 250 g ai/ha): 100 | IPOHE phytotoxicity rating (0-100 scale) ([21]; 125 g ai/ha): 100 | IPOHE phytotoxicity rating (0-100 scale) ([21]; 250 g ai/ha): 100 | CASOB phytotoxicity rating (0-100 scale) ([22]; 125 g ai/ha): 95 | CASOB phytotoxicity rating (0-100 scale) ([22]; 250 g ai/ha): 100 | ECHCG phytotoxicity rating (0-100 scale) ([23]; 125 g ai/ha): 100 | ECHCG phytotoxicity rating (0-100 scale) ([23]; 250 g ai/ha): 100 | CHEAL phytotoxicity rating (0-100 scale) ([24]; 125 g ai/ha): 100 | CHEAL phytotoxicity rating (0-100 scale) ([24]; 250 g ai/ha): 100 | SETVI phytotoxicity rating (0-100 scale) ([25]; 125 g ai/ha): 100 | SETVI phytotoxicity rating (0-100 scale) ([25]; 250 g ai/ha): 100 | ABUTH phytotoxicity rating (0-100 scale) ([26]; 125 g ai/ha): 100 | ABUTH phytotoxicity rating (0-100 scale) ([26]; 250 g ai/ha): 100
